Here are results for 5 compounds from ChEMBL document CHEMBL1201862, “PubChem BioAssay data set” (2004).

Some test systems named below: EKVX; HOP-92; K562; LOX IMVI; NCI-H226; OVCAR-4; OVCAR-5; SF-268; SF-539; SK-MEL-28; SK-MEL-5; SK-OV-3; SR; COLO 205; HCT-15; RPMI-8226.
What all share (test): NCI-60 cell line screen, 48 h

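Compound exposure: 48 hours, 5 concentrations, 96-well plates. GI50 marks 50% less growth.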 The source made the active and inactive calls. Rule as the data show it: active = GI50 up to about 1.1 µM and inactive = higher.

Regarding `O=c1[nH]c(=O)n(C2CC(O)C(CO)O2)cc1/C=C/Br` (stereo unspecified), the GI50 in the experiment with EKVX, in the experiment with HOP-92, in the experiment with K562, in the experiment on LOX IMVI, in the experiment on NCI-H226 and in the experiment with OVCAR-4 was > 100 µM (inactive) throughout. Further, the GI50 in the experiment with OVCAR-5, in the experiment on SF-268, in the experiment with SF-539, in the experiment with SK-MEL-28, in the experiment with SK-MEL-5 and in the experiment with SK-OV-3 was > 100 µM (inactive) throughout. The GI50 in the experiment on SR was > 100 µM (inactive).

With `O=C(c1c(O)cc(O)cc1O)C1Cc2ccccc21` (stereo unspecified), the GI50 with COLO 205 was > 100 µM (inactive); with HCT-15 it was > 100 µM; in the experiment on HOP-92, 19.1 µM (inactive); with K562, 68.1 µM (inactive); in the experiment with LOX IMVI, > 100 µM (inactive); in the experiment on NCI-H226, > 100 µM (inactive). The GI50 is 30.4 µM (inactive) in the experiment with OVCAR-4; > 100 µM (inactive) with OVCAR-5; 58.1 µM (inactive) in the experiment on RPMI-8226; 53.1 µM (inactive) with SF-268; 32.2 µM (inactive) in the experiment with SF-539; > 100 µM (inactive) with SK-MEL-5. In addition, the GI50 with SK-OV-3 and with SR was > 100 µM (inactive) each time.

In the case of `C/C(=N\NC(N)=S)c1ccc2c(c1)OCO2`, the GI50 is > 100 µM (inactive) in the experiment on COLO 205; 13.9 µM (inactive) with EKVX; > 100 µM with HCT-15; > 100 µM (inactive) in the experiment on HOP-92; > 100 µM (inactive) with K562; > 100 µM (inactive) in the experiment with LOX IMVI. Besides, the GI50 in the experiment on NCI-H226, in the experiment with OVCAR-5, with RPMI-8226, in the experiment on SF-268, in the experiment on SF-539 and in the experiment on SK-MEL-28 was > 100 µM (inactive) in each case. In addition, the GI50 in the experiment with SK-MEL-5, in the experiment on SK-OV-3 and in the experiment on SR was > 100 µM (inactive) throughout.

As to `CC(C)(c1cn(Cc2ccccc2)c2ccccc12)c1cn(Cc2ccccc2)c2ccccc12`, the GI50 was > 100 µM (inactive) in the experiment with COLO 205; > 100 µM (inactive) with EKVX; > 100 µM in the experiment on HCT-15; 32.2 µM (inactive) in the experiment on HOP-92; > 100 µM (inactive) in the experiment with K562; > 100 µM (inactive) with LOX IMVI. Further, the GI50 was 51.3 µM (inactive) in the experiment on NCI-H226; > 100 µM (inactive) with OVCAR-4; > 100 µM (inactive) with OVCAR-5; > 100 µM (inactive) in the experiment with RPMI-8226; > 100 µM (inactive) in the experiment with SF-268; > 100 µM (inactive) in the experiment with SF-539. In addition, the GI50 in the experiment with SK-MEL-5, with SK-OV-3 and in the experiment with SR was > 100 µM (inactive) throughout.

On to `CN(C)c1ccc(/C=c2/sc3nc(=O)c(-c4ccccc4NC(=O)C(F)(F)F)nn3c2=O)cc1`, for which the GI50 was 98.6 µM (inactive) in the experiment with COLO 205; > 100 µM (inactive) in the experiment with EKVX; 77.4 µM (inactive) in the experiment on HOP-92; > 100 µM (inactive) in the experiment with K562; > 100 µM (inactive) in the experiment on LOX IMVI; 26.4 µM (inactive) in the experiment on NCI-H226. In addition, the GI50 in the experiment with OVCAR-4, with OVCAR-5, with SF-268, with SF-539, in the experiment on SK-MEL-28 and with SK-MEL-5 was > 100 µM (inactive) in each case. Also, the GI50 with SK-OV-3 was > 100 µM (inactive); in the experiment with SR, 93.8 µM (inactive).
